In publication PMC9629815, “MK256 is a novel CDK8 inhibitor with potent antitumor activity in AML through downregulation of the STAT pathway” (Oncotarget, 2022):
Read-outs that look alike come from different tables or passages of the source.

Assays:
CDK3/cyclin E1 = CDK3/cyclin E1 (Homo sapiens, UniProt Q00526); assay: CDK panel kinase inhibition; format: biochemical; details: read-out: Percentage of inhibition (%)
Description: (§1) MK256 was synthesized in house. The kinase profiling of MK256 against various targets was done using the SelectScreen Kinase Profiling Services provided by ThermoFisher Scientific (Walham WA, USA). https://www.thermofisher.com/us/en/home/products-and-services/services/custom-services/screening-and-profiling-services/selectscreen-profiling-service/selectscreen-kinase-profiling-service.html.

CDK18/cyclin Y = CDK18/cyclin Y (Homo sapiens, UniProt Q07002); assay: CDK panel kinase inhibition; format: biochemical; details: read-out: Percentage of inhibition (%)
Description: as §1

CDK7/cyclin H/MNAT1 = CDK7/cyclin H/MNAT1 (Homo sapiens, UniProt P50613); assay: CDK panel kinase inhibition; format: biochemical; details: read-out: Percentage of inhibition (%)
Description: as §1

CDK13/cyclin K = CDK13/cyclin K (Homo sapiens, UniProt Q14004); assay: CDK panel kinase inhibition; format: biochemical; details: read-out: Percentage of inhibition (%)
Description: as §1

CDK6/cyclin D1 = CDK6/cyclin D1 (Homo sapiens, UniProt Q00534); assay: CDK panel kinase inhibition; format: biochemical; details: read-out: Percentage of inhibition (%)
Description: as §1

CDK9/cyclin T1 = CDK9/cyclin T1 (Homo sapiens, UniProt P50750); assay: CDK panel kinase inhibition; format: biochemical; details: read-out: Percentage of inhibition (%)
Description: as §1

CDK17/cyclin Y = CDK17/cyclin Y (Homo sapiens, UniProt Q00537); assay: CDK panel kinase inhibition; format: biochemical; details: read-out: Percentage of inhibition (%)
Description: as §1

CDK5 (Inactive) = CDK5 (Inactive) (Homo sapiens, UniProt Q00535); assay: CDK panel kinase inhibition; format: biochemical; details: read-out: Percentage of inhibition (%)
Description: as §1

CDK5/p25 = CDK5/p25 (Homo sapiens, UniProt Q00535); assay: CDK panel kinase inhibition; format: biochemical; details: read-out: Percentage of inhibition (%)
Description: as §1

CDK4/cyclin D1 = CDK4/cyclin D1 (Homo sapiens, UniProt P11802); assay: CDK panel kinase inhibition; format: biochemical; details: read-out: Percentage of inhibition (%)
Description: as §1

CDK2/cyclin E1 = CDK2/cyclin E1 (Homo sapiens, UniProt P24941); assay: CDK panel kinase inhibition; format: biochemical; details: read-out: Percentage of inhibition (%)
Description: as §1

CDK5/p35 = CDK5/p35 (Homo sapiens, UniProt Q00535); assay: CDK panel kinase inhibition; format: biochemical; details: read-out: Percentage of inhibition (%)
Description: as §1

CDK4/cyclin D3 = CDK4/cyclin D3 (Homo sapiens, UniProt P11802); assay: CDK panel kinase inhibition; format: biochemical; details: read-out: Percentage of inhibition (%)
Description: as §1

CDK16 (PCTK1)/cyclin Y = CDK16 (PCTK1)/cyclin Y (Homo sapiens, UniProt Q00536); assay: CDK panel kinase inhibition; format: biochemical; details: read-out: Percentage of inhibition (%)
Description: as §1

CDK9/cyclin K = CDK9/cyclin K (Homo sapiens, UniProt P50750); assay: CDK panel kinase inhibition; format: biochemical; details: read-out: Percentage of inhibition (%)
Description: as §1

CDK1/cyclin B = CDK1/cyclin B (Homo sapiens, UniProt P06493); assay: CDK panel kinase inhibition; format: biochemical; details: read-out: Percentage of inhibition (%)
Description: as §1

CDK14 (PFTK1)/cyclin Y = CDK14 (PFTK1)/cyclin Y (Homo sapiens, UniProt O94921); assay: CDK panel kinase inhibition; format: biochemical; details: read-out: Percentage of inhibition (%)
Description: as §1

CDK2/cyclin A = CDK2/cyclin A (Homo sapiens, UniProt P24941); assay: CDK panel kinase inhibition; format: biochemical; details: read-out: Percentage of inhibition (%)
Description: as §1

[1] = Hepatocyte stability assay; format: in vitro ADME, Mouse
Description: (§2) Human LiverPoolTM 20-donor, dog and mouse cryopreserved hepatocytes were obtained from BioreclamationIVT. Cryopreserved hepatocytes were removed from the liquid nitrogen tank and thawed in a 37°C water bath. As soon as the cells pulled away from the vial wall, they were decanted into 48 ml of warm HT medium. Cells were centrifuged for four minutes at 420 rpm (50 g). After the supernatant was removed, the pellet was re-suspended in warm DMEM medium. Cell density was counted by a hemacytometer. The assay was carried out in 96-well microtiter plates. MK256 was incubated for 0, 60, 120, and 180 minutes at 37°C with hepatocytes. Reaction mixtures (50 μL) contained a final concentration of 1 μM MK256, 0.5 million cells/mL hepatocytes in the DMEM medium. At each time point (for example, 0, 1, 2, and 3 hrs), 200 μL of quench solution (100% acetonitrile with 0.1% formic acid) with internal standard were transferred to each well. […] All samples were analyzed on LC/MS/MS using an AB Sciex API 4000 instrument, coupled to a Shimadzu LC-20AD LC Pump system. […] The extent of metabolism was calculated as the disappearance of the test compound, compared to the 0-min control reaction incubations. Initial rates were calculated for the compound concentration and used to determine t1/2 values and subsequently, the intrinsic clearance, CLint = (0.693)(1/t1/2 (min))(mL incubation/million cells).

[2] = Hepatocyte stability assay; format: in vitro ADME, Dog
Description: as §2

Chain of CDK1/cyclin B (P06493 whole entry): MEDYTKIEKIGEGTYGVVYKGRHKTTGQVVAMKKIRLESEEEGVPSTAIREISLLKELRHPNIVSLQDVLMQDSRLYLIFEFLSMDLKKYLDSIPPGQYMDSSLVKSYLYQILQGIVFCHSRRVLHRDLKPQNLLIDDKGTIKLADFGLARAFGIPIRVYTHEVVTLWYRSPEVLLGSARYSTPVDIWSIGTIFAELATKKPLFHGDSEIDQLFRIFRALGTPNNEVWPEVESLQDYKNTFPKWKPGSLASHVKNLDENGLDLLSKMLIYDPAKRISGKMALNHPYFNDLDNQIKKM
Chain of CDK1/cyclin B (P14635 whole entry partner): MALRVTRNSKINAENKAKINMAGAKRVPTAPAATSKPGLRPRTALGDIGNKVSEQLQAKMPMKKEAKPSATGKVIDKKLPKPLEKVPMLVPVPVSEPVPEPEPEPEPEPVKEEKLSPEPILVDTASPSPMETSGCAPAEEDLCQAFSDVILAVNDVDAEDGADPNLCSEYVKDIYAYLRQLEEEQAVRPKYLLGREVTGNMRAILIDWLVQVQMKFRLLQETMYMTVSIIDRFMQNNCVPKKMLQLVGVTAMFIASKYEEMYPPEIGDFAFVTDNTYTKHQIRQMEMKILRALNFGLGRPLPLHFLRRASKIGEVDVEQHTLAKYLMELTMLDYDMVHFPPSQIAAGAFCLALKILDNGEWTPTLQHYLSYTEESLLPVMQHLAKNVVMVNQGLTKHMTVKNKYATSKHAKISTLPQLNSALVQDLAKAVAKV
Chain of CDK5 (Inactive) (Q00535 whole entry): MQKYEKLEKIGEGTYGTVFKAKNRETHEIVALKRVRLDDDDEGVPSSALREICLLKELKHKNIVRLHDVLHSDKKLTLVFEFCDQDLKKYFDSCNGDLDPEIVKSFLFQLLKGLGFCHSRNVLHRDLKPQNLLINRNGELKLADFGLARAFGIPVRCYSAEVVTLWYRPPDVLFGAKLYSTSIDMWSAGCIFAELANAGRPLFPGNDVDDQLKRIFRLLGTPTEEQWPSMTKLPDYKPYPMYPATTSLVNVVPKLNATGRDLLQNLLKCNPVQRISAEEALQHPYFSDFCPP
Chain of CDK5/p25 (Q00535 whole entry): as above
Chain of CDK5/p25 (Q15078 99-307 partner limits assumed): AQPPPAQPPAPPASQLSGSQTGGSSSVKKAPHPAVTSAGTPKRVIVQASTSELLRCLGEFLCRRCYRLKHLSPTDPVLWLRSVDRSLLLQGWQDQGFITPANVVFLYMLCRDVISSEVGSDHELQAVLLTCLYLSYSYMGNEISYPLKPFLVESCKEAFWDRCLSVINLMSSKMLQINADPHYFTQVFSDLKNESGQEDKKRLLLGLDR
Chain of CDK5/p35 (Q00535 whole entry): as the sequence (Q00535 whole entry) above
Chain of CDK5/p35 (Q15078 2-307 partner limits assumed): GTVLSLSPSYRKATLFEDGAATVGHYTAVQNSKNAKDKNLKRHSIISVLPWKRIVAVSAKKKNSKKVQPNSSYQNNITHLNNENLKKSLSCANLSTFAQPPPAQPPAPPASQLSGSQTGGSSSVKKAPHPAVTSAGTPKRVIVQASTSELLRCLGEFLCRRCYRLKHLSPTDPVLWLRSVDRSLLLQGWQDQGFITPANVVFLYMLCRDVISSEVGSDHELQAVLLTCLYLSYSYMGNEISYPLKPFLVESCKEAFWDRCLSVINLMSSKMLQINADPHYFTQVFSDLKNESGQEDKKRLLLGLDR
Chain of CDK6/cyclin D1 (Q00534 whole entry): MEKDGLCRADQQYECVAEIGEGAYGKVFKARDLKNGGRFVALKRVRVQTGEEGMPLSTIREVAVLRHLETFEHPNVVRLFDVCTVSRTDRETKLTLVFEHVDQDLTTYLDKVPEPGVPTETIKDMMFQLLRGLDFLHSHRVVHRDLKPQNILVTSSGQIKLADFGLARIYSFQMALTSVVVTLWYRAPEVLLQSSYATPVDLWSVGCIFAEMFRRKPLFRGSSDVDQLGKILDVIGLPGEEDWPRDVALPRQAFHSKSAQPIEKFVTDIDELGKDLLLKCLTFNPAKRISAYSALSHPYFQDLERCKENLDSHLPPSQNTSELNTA
Chain of CDK6/cyclin D1 (P24385 whole entry partner): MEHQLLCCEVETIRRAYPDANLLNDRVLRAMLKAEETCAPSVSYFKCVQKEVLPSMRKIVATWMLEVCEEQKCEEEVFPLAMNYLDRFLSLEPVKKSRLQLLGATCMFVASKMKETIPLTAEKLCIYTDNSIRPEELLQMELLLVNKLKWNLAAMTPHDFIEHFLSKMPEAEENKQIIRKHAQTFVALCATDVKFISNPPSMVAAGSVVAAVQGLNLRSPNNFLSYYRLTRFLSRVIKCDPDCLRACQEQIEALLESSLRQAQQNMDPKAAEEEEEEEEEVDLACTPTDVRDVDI
Chain of CDK4/cyclin D1 (P11802 whole entry): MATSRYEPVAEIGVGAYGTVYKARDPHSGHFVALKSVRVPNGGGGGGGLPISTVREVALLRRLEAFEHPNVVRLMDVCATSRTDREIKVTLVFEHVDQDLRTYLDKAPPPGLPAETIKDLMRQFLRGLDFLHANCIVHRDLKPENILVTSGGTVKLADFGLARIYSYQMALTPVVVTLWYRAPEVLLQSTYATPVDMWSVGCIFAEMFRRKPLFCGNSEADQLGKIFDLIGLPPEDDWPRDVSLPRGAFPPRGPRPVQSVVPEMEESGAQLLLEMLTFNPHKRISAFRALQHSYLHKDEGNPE
Chain of CDK4/cyclin D1 (P24385 whole entry partner): as the sequence (P24385 whole entry partner) above
Chain of CDK4/cyclin D3 (P11802 whole entry): as the sequence (P11802 whole entry) above
Chain of CDK4/cyclin D3 (P30281 whole entry partner): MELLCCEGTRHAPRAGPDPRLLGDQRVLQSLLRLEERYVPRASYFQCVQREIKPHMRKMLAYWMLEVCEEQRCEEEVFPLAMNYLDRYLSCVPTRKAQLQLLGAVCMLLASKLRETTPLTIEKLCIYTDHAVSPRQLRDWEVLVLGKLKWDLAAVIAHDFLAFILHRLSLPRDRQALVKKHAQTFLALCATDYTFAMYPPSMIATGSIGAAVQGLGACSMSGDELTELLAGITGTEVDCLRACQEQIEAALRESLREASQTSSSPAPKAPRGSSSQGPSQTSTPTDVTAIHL
Chain of CDK7/cyclin H/MNAT1 (P50613 whole entry): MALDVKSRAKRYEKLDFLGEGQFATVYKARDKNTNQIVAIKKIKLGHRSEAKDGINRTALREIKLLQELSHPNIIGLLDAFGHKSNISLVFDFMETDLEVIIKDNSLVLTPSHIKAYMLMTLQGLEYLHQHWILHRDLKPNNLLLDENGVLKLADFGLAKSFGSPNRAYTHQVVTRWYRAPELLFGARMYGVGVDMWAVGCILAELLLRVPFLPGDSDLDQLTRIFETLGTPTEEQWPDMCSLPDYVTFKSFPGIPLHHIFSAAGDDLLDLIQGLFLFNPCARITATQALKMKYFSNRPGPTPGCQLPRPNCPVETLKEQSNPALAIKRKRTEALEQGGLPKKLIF
Chain of CDK7/cyclin H/MNAT1 (P51946 whole entry partner): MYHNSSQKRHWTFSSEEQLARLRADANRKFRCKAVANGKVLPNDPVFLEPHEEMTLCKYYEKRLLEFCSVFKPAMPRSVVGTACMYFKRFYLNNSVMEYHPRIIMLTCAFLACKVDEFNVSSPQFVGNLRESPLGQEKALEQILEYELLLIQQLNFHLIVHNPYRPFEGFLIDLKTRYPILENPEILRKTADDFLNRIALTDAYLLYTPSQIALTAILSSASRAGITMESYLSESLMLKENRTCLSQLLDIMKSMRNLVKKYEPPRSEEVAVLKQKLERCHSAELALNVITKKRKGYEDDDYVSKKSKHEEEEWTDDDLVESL
Chain of CDK7/cyclin H/MNAT1 (P51948 whole entry partner): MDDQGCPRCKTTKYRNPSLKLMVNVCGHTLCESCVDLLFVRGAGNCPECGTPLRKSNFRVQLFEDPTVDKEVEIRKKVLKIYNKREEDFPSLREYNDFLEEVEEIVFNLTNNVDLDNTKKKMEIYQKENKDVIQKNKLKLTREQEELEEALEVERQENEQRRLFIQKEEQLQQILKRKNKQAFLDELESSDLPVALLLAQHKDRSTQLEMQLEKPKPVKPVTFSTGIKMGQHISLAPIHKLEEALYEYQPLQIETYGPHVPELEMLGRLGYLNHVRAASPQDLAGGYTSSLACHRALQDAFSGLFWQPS

Nc1nccc2c(Br)cc3cc(C(=O)O)ccc3c12 [MK256]
inhibition at 0.2 µM (CDK3/cyclin E1; 200 nM): 4%
inhibition at 10 µM (CDK3/cyclin E1; 10 μM): 82%
inhibition at 0.2 µM (CDK18/cyclin Y; 200 nM): 37%
inhibition at 10 µM (CDK18/cyclin Y; 10 μM): 98%
inhibition at 0.2 µM (CDK7/cyclin H/MNAT1; 200 nM): 9%
inhibition at 10 µM (CDK7/cyclin H/MNAT1; 10 μM): 54%
inhibition at 0.2 µM (CDK13/cyclin K; 200 nM): 27%
inhibition at 10 µM (CDK13/cyclin K; 10 μM): 95%
inhibition at 0.2 µM (CDK6/cyclin D1; 200 nM): -12%
inhibition at 10 µM (CDK6/cyclin D1; 10 μM): 23%
inhibition at 0.2 µM (CDK9/cyclin T1; 200 nM): 82%
inhibition at 10 µM (CDK9/cyclin T1; 10 μM): 98%
inhibition at 0.2 µM (CDK17/cyclin Y; 200 nM): 25%
inhibition at 10 µM (CDK17/cyclin Y; 10 μM): 94%
inhibition at 0.2 µM (CDK5 (Inactive); 200 nM): 7%
inhibition at 10 µM (CDK5 (Inactive); 10 μM): 70%
inhibition at 0.2 µM (CDK5/p25; 200 nM): 2%
inhibition at 10 µM (CDK5/p25; 10 μM): 89%
inhibition at 0.2 µM (CDK4/cyclin D1; 200 nM): 2%
inhibition at 10 µM (CDK4/cyclin D1; 10 μM): 23%
inhibition at 0.2 µM (CDK2/cyclin E1; 200 nM): 5%
inhibition at 10 µM (CDK2/cyclin E1; 10 μM): 70%
inhibition at 0.2 µM (CDK5/p35; 200 nM): 7%
inhibition at 10 µM (CDK5/p35; 10 μM): 90%
inhibition at 0.2 µM (CDK4/cyclin D3; 200 nM): -3%
inhibition at 10 µM (CDK4/cyclin D3; 10 μM): 23%
inhibition at 0.2 µM (CDK16 (PCTK1)/cyclin Y; 200 nM): 1%
inhibition at 10 µM (CDK16 (PCTK1)/cyclin Y; 10 μM): 67%
inhibition at 0.2 µM (CDK9/cyclin K; 200 nM): 76%
inhibition at 10 µM (CDK9/cyclin K; 10 μM): 101%
inhibition at 0.2 µM (CDK1/cyclin B; 200 nM): 34%
inhibition at 10 µM (CDK1/cyclin B; 10 μM): 97%
inhibition at 0.2 µM (CDK14 (PFTK1)/cyclin Y; 200 nM): 23%
inhibition at 10 µM (CDK14 (PFTK1)/cyclin Y; 10 μM): 97%
inhibition at 0.2 µM (CDK2/cyclin A; 200 nM): 7%
inhibition at 10 µM (CDK2/cyclin A; 10 μM): 85%
Clint (μL·min^−1·mg protein^−1) ([1]; Mouse hepatocytes): 5 μL·min^−1·mg protein^−1
half-life at 1 µM ([1]; mouse, cryopreserved mouse hepatocytes, read-out: T½): 5.18 h
Clint (μL·min^−1·mg protein^−1) ([2]; Dog hepatocytes): 7 μL·min^−1·mg protein^−1
half-life at 1 µM ([2]; dog, cryopreserved dog hepatocytes, read-out: T½): 3.57 h
